Source: patent publication US20250215029A1 (Recludix Pharma, Inc., priority 2022, published 2025)
Read-outs that look alike come from different tables or passages of the source.

Experiments:
[1] = target: T1, Recombinant STAT3 protein (STAT3 (G127-I722)) (Homo sapiens, UniProt P40763); assay: STAT3 Fluorescence Polarization (FP) Assay; format: binding; conditions: probe 5-FAM-GpYLPQTV-NH2 2 nM, 45-minute incubation
T1 construct: Recombinant STAT3 protein (STAT3 (G127-I722))
Method in brief: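 Compounds in serial dilution receive a premix of STAT3 (G127-I722, 25 nM) and fluorescent phosphotyrosine peptide 5-FAM-GpYLPQTV-NH2 (2 nM) at pH 7.4. After 45 min at room temperature, FP is measured and IC50 derived by nonlinear regression.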

[2] = target: T2, Recombinant STAT6 protein (STAT6 (W123-T658)) (Homo sapiens, UniProt P42226); assay: STAT6 Fluorescence Polarization (FP) Assay; format: binding; conditions: probe 5-FAM-Ap[…]-NH2 2 nM, 45-minute incubation
T2 construct: Recombinant STAT6 protein (STAT6 (W123-T658))
T2 sequence (P42226 123-658): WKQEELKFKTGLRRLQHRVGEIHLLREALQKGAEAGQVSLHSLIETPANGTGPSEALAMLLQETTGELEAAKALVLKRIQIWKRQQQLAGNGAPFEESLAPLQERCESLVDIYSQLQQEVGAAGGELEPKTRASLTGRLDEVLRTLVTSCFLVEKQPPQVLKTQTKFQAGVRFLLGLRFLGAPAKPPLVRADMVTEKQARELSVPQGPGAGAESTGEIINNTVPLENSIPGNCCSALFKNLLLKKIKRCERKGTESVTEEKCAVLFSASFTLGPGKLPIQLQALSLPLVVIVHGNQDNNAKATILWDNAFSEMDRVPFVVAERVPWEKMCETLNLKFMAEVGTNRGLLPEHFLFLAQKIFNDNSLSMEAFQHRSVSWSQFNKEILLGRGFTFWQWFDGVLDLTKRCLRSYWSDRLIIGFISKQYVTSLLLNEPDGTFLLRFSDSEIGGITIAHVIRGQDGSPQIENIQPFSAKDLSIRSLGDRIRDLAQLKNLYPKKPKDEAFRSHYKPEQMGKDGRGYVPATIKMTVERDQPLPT
Method in brief: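 STAT6 (W123-T658) at 250 nM was mixed with 2 nM 5-FAM-labeled phosphotyrosine peptide probe in HEPES pH 7.4 buffer with NaCl, EDTA, Tween 20 and DTT, then added to serially diluted compounds at 1% DMSO final. Polarization was read after 45 min at room temperature; IC50 came from nonlinear regression of mP versus log concentration.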

[3] = STAT3 (G127-I722) 25 nM, read-out: STAT3 (FP assay IC50 class)
[4] = STAT6 (W123-T658) 250 nM, read-out: STAT6 (FP assay IC50 class)

T1 sequence (P40763 127-722): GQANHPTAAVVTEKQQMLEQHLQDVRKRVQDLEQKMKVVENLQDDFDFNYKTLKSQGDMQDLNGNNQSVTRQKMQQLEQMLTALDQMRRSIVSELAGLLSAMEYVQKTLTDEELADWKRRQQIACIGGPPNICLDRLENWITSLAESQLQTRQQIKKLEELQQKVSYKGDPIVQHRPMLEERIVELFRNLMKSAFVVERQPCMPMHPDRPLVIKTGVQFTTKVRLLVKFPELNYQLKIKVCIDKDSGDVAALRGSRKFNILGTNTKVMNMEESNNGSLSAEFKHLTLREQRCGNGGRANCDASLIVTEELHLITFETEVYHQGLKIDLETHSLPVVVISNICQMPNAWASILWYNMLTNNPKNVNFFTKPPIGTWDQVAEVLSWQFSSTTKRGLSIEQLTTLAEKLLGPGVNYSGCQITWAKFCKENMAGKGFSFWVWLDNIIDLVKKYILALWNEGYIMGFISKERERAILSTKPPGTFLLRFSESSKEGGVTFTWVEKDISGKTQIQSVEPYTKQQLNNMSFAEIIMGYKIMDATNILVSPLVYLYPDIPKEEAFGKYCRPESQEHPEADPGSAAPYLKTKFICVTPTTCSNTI

IC50 [1, 3] [µM] | IC50 [2, 4] [µM] | IC50 ([1]; STAT3 25 nM, read-out: STAT3 (FP assay IC50)) [µM] | IC50 ([2]; STAT6 250 nM, read-out: STAT6 (FP assay IC50)) [µM] | Structure (SMILES)
< 0.1 | 3 to 30 | – | – | O=C(N[C@H]1CCC[C@H]2CC[C@@H](C(=O)N3CC(c4cnccc4O)C3)N2C1=O)c1cc2cc(CP(=O)(O)O)ccc2s1 [Compound 539, ((2-(((3S,6S,9aS)-3-(3-(4-hydroxypyridin-3-yl)azetidine-1-carbonyl)-5-oxooctahydro-1H-pyrrolo[1,2-a]azepin-6-yl)carbamoyl)benzo[b]thiophen-5-yl)methyl)phosphonic acid]
< 0.1 | 3 to 30 | – | – | CC[C@@H]1CC[C@H](NC(=O)c2cc3cc(C(F)P(=O)(O)O)ccc3s2)C(=O)N2[C@H](CC[C@H]2C(=O)N2CC(c3cnccc3OC)C2)C1 (stereo partly drawn) [Compound 210, ((2-(((3S,6S,9R,10aR)-9-ethyl-3-(3-(4-methoxypyridin-3-yl)azetidine-1-carbonyl)-5-oxodecahydropyrrolo[1,2-a]azocin-6-yl)carbamoyl)benzo[b]thiophen-5-yl)fluoromethyl)phosphonic acid]
1 to 10 | ≤ 0.3 | – | – | CCC[C@@H]1CC[C@H](NC(=O)c2cc3cc(C(F)P(=O)(O)O)ccc3s2)C(=O)N2[C@H](CC[C@H]2C(=O)N2C[C@@H](C#N)[C@H](c3ccccc3)C2)C1 (single isomer, unassigned) [Compound 239]
< 0.1 | 0.3 to 3 | – | – | N#Cc1cccc(C2CN(C(=O)[C@@H]3CC[C@@H]4CCC[C@H](NC(=O)c5cc6cc(C(F)(F)P(=O)(O)O)ccc6s5)C(=O)N43)C2)n1 [Compound 811, ((2-(((3S,6S,9aS)-3-(3-(6-cyanopyridin-2-yl)azetidine-1-carbonyl)-5-oxooctahydro-1H-pyrrolo[1,2-a]azepin-6-yl)carbamoyl)benzo [b]thiophen-5-yl)difluoromethyl) phosphonic acid]
< 0.1 | 3 to 30 | – | – | C[C@H]1C[C@H]2CC[C@@H](C(=O)N3CC(c4cncnc4N4CCC4)C3)N2C(=O)[C@@H](NC(=O)c2cc3cc([C@@H](F)P(=O)(O)O)ccc3s2)C1 (single isomer, unassigned) [Compound 677]
– | – | 0.1 to 1 | 3 to 30 | O=C(N[C@H]1CCC[C@H]2CC[C@@H](C(=O)N3CC(C4CCOCC4)C3)N2C1=O)c1cc2cc(C(F)(F)P(=O)(O)O)ccc2s1 [Compound 119, (difluoro(2-(((3S,6S,9aS)-5-oxo-3-(3-(tetrahydro-2H-pyran-4-yl)azetidine-1-carbonyl)octahydro-1H-pyrrolo[1,2-a]azepin-6-yl)carbamoyl)benzo[b]thiophen-5-yl)methyl) phosphonic acid]
1 to 10 | 0.3 to 3 | – | – | COc1cc(C2CN(C(=O)C3CCC4CCCCC(NC(=O)c5cc6cc(C(F)(F)P(=O)(O)O)ccc6s5)C(=O)N43)CC2C#N)cc(C)n1 (mixture of isomers) [Compound 874, ((2-(((3S,6S,10aS)-3-((rel-trans)-3-cyano-4-(2-methoxy-6-methylpyridin-4-yl)pyrrolidine-1-carbonyl)-5-oxodecahydropyrrolo[1,2-a]azocin-6-yl)carbamoyl)benzo [b]thiophen-5-yl)difluoromethyl) phosphonic acid]
0.1 to 1 | 0.3 to 3 | – | – | CC(NC(=O)[C@@H]1CC[C@@H]2CCCC[C@H](NC(=O)c3cc4cc(C(F)(F)P(=O)(O)O)ccc4s3)C(=O)N21)c1c[nH]c2ncccc12 (stereo partly drawn) [Compound 1113, ((2-(((3S,6S,10aS)-3-((1-(1H-pyrrolo[2,3-b]pyridin-3-yl)ethyl)carbamoyl)-5-oxodecahydropyrrolo[1,2-a]azocin-6-yl)carbamoyl)benzo[b]thiophen-5-yl)difluoromethyl)phosphonic acid]
0.1 to 1 | 3 to 30 | – | – | COc1nccc(C2CN(C(=O)[C@@H]3CC[C@@H]4CCC[C@H](NC(=O)c5cc6cc([C@@H](F)P(=O)(O)O)ccc6s5)C(=O)N43)C2)c1F (single isomer, unassigned) [Compound 700]
